Data: US20240391956A1, “STAPLED PEPTIDES AND METHODS THEREOF” (FOG PHARMACEUTICALS, INC., priority 2023, published 2024)
Where two headings read alike, the source gives them in different places. *1 amine or outer side, *2 acyl side, *3 side chain or, on linkers, in order; H or OH if unused. Where a SMILES comes first, the peptide text is derived from it. Bridges are numbered along the chain shown (N, C = ends). [ ]: non-standard residue; d: D form. Phenylene(1,4-NHCOCH2)2 = O=C(C[*:1])Nc1ccc(NC(=O)C[*:2])cc1; dNle = CCCC[C@@H](N)C(=O)O

Molecular target: T1, MDM2 (residues 25-109) (Homo sapiens, UniProt Q00987)
T1 construct: MDM2 (residues 25-109) with an N-terminal 6×His-yBBr-TEV tag was recombinantly expressed in E. coli; made in house; host or cells: E. coli BL21 CodonPlus
Test: SPR binding to immobilized biotinylated MDM2 25-109 (Biacore 8K)
Protocol: SPR experiments were performed on a Biacore 8K (Cytiva) instrument at 25° C. in 1×HBS-P+ buffer (Cytiva) with 1% DMSO. A SA Series S sensor chip was docked and pre-conditioned with three injections of 50 mM NaOH/1 M NaCl to remove unbound streptavidin from the surface. Biotinylated MDM2^25-109 were diluted to 2 μg/mL in running buffer and immobilized to channels 1 through 8 at 5 μL/min for 71 sec for a final immobilization level of ˜390 RU. Peptides were diluted to 5 μM in running buffer then serially diluted 2-fold for a total of seven concentrations with one blank (7-point two-fold peptide dilution series with top concentration=5 μM and bottom concentration=78 nM). Compounds were injected over the immobilized and reference surfaces at 30 μL/min for 60 sec and then allowed to dissociate for 180 sec without surface regeneration (N=1). Data was analyzed using Biacore Insight Evaluation software (Cytiva). Sensorgrams were double referenced, with most of them fitted to a 1:1 steady state affinity model, with a few fitted with both steady state affinity model and kinetics model.
MDM2 expression: MDM2 (residues 25-109) with an N-terminal 6×His-yBBr-TEV tag was recombinantly expressed in E. coli BL21 CodonPlus cells (Agilent) from pET-derived expression vectors (Novagen) (“6×His” disclosed as SEQ ID NO: 13). The cells were induced at OD600=0.6 with 1 mM isopropyl β-D-1-thiogalactopyranoside (IPTG) for 4 hours at 37° C., then harvested and resuspended in 25 mM Tris-HCl pH 7.5, 300 mM NaCl, 10% glycerol, 1 mM PMSF. For purification, the pellet was lysed with a tip sonicator, and pelleted at 22,000×g for 30 minutes at 4° C. The pellets were washed with 20 mM Tris-HCl pH 8.0, 150 mM NaCl, 1 M urea, 1.0% triton X-100 three times, and the inclusion body was dissolved in 20 mM Tris-HCl pH 8.0, 150 mM NaCl, 8 M urea, and 2 mM ß-mercaptoethanol (ß-me). The supernatant was purified with Ni-NTA resin (Qiagen), eluting with 20 mM Tris-HCl pH 8.0, 150 mM NaCl, 8 M urea, 2 mM ß-me, and 250 mM imidazole. Protein elutes were diluted to ˜0.1 mg/mL and dialyzed into buffers containing 10 mM Tris-HCl pH 8.0, 150 mM NaCl, 2 mM ß-me, with 4, 2, 1, or 0 M urea, at 4° C. for 8 hours for each urea gradient. Urea-free proteins were concentrated with Amicon spin filters (Millipore Sigma) to ˜1 mg/mL and biotinylated via the yBBr reaction according to reported procedures (e.g., reported in Yin, J. et al. Genetically encoded short peptide tag for versatile protein labeling by Sfp phosphopantetheinyl transferase. Proceedings of the National Academy of Sciences 102, 15815-15820 (2005)). Biotinylated proteins were pooled, concentrated, and loaded onto a Superdex™ 10/300 75 pg (Cytiva) SEC column and eluted in 20 mM HEPES pH 7.0, 200 mM NaCl, 5% glycerol, 0.5 mM tris(2-carboxyethyl) phosphine (TCEP). Fractions containing pure protein were collected, pooled, concentrated to ˜1 mg/mL and stored at −80° C. In some embodiments, such MDM2 preparation were utilized in biochemical assays.

T1 sequence (Q00987 25-109): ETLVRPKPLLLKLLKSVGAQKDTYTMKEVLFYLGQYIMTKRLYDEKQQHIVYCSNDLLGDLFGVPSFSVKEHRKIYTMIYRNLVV

Compound: CC(=O)N[C@H](CC(=O)O)C(=O)N1CCC[C@@H]1C(=O)N[C@H](C)C(=O)N[C@H](Cc1c[nH]c2ccccc12)C(=O)N[C@H](CC(N)=O)C(=O)N[C@H](Cc1c[nH]cn1)C(=O)N[C@@H]1CSCC(=O)Nc2ccc(cc2)NC(=O)CSC[C@H](C(=O)N[C@H](CO)C(=O)N[C@H](CCC(=O)O)C(=O)N[C@@H](C(N)=O)C(C)C)NC(=O)[C@@H](C(C)C)NC(=O)[C@@H](Cc2ccccc2)NC(=O)[C@@H](C)NC(=O)[C@@H](C)NC(=O)[C@@H](Cc2ccc(O)cc2)NC(=O)[C@@H](CCC(=O)O)NC1=O [H102, Ac-dpawnhceyaafvcsev-NH2] (Ac-[dD][dP][dA][dW][dN][dH][dC][dE][dY][dA][dA][dF][dV][dC][dS][dE][dV]-NH2; linker 7-14 via Phenylene(1,4-NHCOCH2)2)
- Kd: 2700 nM

Compound: CCCC[C@H]1NC(=O)[C@@H](C)NC(=O)[C@@H](C)NC(=O)[C@@H](CCC(=O)O)NC(=O)[C@@H](CCCC)NC(=O)[C@H](NC(=O)[C@@H](CCC(=O)O)NC(=O)[C@@H](Cc2ccc(O)cc2)NC(=O)[C@@H](Cc2c[nH]c3ccccc23)NC(=O)[C@@H](C)NC(=O)[C@H]2CCCN2C(=O)[C@@H](CC(=O)O)NC(C)=O)CSCC(=O)Nc2ccc(cc2)NC(=O)CSC[C@H](C(=O)N[C@H](CCC(N)=O)C(=O)N[C@H](CCC(N)=O)C(=O)N[C@@H](C(N)=O)C(C)C)NC(=O)[C@@H](CCCC)NC1=O [H103, Ac-dpawyecm*eaam*m*cqqv-NH2] (Ac-[dD][dP][dA][dW][dY][dE][dC][dNle][dE][dA][dA][dNle][dNle][dC][dQ][dQ][dV]-NH2; linker 7-14 via Phenylene(1,4-NHCOCH2)2)
- Kd: 880 nM

Compound: CCCC[C@H]1NC(=O)[C@@H](CC(=O)O)NC(=O)[C@@H](C)NC(=O)[C@@H](C)NC(=O)[C@@H](CC(C)C)NC(=O)[C@@H](CC(N)=O)NC(=O)[C@H](NC(=O)[C@@H](CCC(=O)O)NC(=O)[C@H](NC(=O)[C@@H](CC(C)C)NC(=O)[C@@H](C)NC(=O)[C@H]2CCCN2C(=O)[C@@H](CC(=O)O)NC(C)=O)C(C)C)CSCC(=O)Nc2ccc(cc2)NC(=O)CSC[C@H](C(=O)N[C@H](Cc2c[nH]cn2)C(=O)N[C@H](Cc2ccccc2)C(=O)N[C@H](Cc2ccc(O)cc2)C(N)=O)NC1=O [H104, Ac-dpalvecnlaadm*chfy-NH2] (Ac-[dD][dP][dA][dL][dV][dE][dC][dN][dL][dA][dA][dD][dNle][dC][dH][dF][dY]-NH2; linker 7-14 via Phenylene(1,4-NHCOCH2)2)
- Kd: 1800 nM

Compound: CCCC[C@@H](NC(=O)[C@@H](CCC(N)=O)NC(=O)[C@@H](CC(C)C)NC(=O)[C@H]1CSCC(=O)Nc2ccc(cc2)NC(=O)CSC[C@@H](NC(=O)[C@H](NC(=O)[C@@H](C)NC(=O)[C@@H](Cc2c[nH]c3ccccc23)NC(=O)[C@@H](C)NC(=O)[C@H]2CCCN2C(=O)[C@@H](CC(=O)O)NC(C)=O)[C@H](C)O)C(=O)N[C@H](CCCC)C(=O)N[C@H](CC(=O)O)C(=O)N[C@H](C)C(=O)N[C@H](C)C(=O)N[C@H](CC(C)C)C(=O)N[C@H](CC(N)=O)C(=O)N1)C(N)=O [H106, Ac-dpawatcm*daalnclqm*- NH2] (Ac-[dD][dP][dA][dW][dA][dT][dC][dNle][dD][dA][dA][dL][dN][dC][dL][dQ][dNle]-NH2; linker 7-14 via Phenylene(1,4-NHCOCH2)2)
- Kd: 1800 nM

Compound: CC(=O)N[C@H](CC(=O)O)C(=O)N1CCC[C@@H]1C(=O)N[C@H](C)C(=O)N[C@H](CO)C(=O)N[C@H](CCCNC(=N)N)C(=O)N[C@H](CC(N)=O)C(=O)N[C@@H]1CSCC(=O)Nc2ccc(cc2)NC(=O)CSC[C@H](C(=O)N[C@H](CCC(=O)O)C(=O)N[C@H](Cc2ccc(O)cc2)C(=O)N[C@H](Cc2c[nH]c3ccccc23)C(N)=O)NC(=O)[C@@H](CC(C)C)NC(=O)[C@@H](Cc2c[nH]cn2)NC(=O)[C@@H](C)NC(=O)[C@@H](C)NC(=O)[C@@H](Cc2c[nH]c3ccccc23)NC(=O)[C@@H](CCC(N)=O)NC1=O [H107, Ac-dpasrncqwaahlceyw-NH2] (Ac-[dD][dP][dA][dS][dR][dN][dC][dQ][dW][dA][dA][dH][dL][dC][dE][dY][dW]-NH2; linker 7-14 via Phenylene(1,4-NHCOCH2)2)
- Kd (SPR, 25° C., 7-point two-fold dilution, top concentration 5 μM, N=1, read-out: Measured KD): 1100 nM

Compound: CCCC[C@H]1NC(=O)[C@@H](C)NC(=O)[C@@H](C)NC(=O)[C@@H](CCCC)NC(=O)[C@@H](C(C)C)NC(=O)[C@H](NC(=O)[C@@H](CCC(N)=O)NC(=O)[C@@H](Cc2c[nH]c3ccccc23)NC(=O)[C@@H](CO)NC(=O)[C@@H](C)NC(=O)[C@H]2CCCN2C(=O)[C@@H](CC(=O)O)NC(C)=O)CSCC(=O)Nc2ccc(cc2)NC(=O)CSC[C@H](C(=O)N[C@@H](C(=O)N[C@H](CC(C)C)C(=O)N[C@H](CC(=O)O)C(N)=O)C(C)C)NC(=O)[C@@H](CC(=O)O)NC1=O [H109, Ac-dpaswqcvm*aam*dcvld-NH2] (Ac-[dD][dP][dA][dS][dW][dQ][dC][dV][dNle][dA][dA][dNle][dD][dC][dV][dL][dD]-NH2; linker 7-14 via Phenylene(1,4-NHCOCH2)2)
- Kd: 2400 nM
